From patent US12195427B2, “MASP-2 inhibitors and methods of use” (priority 2018, dated 2025)

Molecular target: MASP-2 CCP2-SP (Homo sapiens (Human), UniProt O00187)
Test: MASP-2 co-crystallization, X-ray crystallography and structure analysis (H-bonds, van der Waals contacts);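 for Ligand-pharmacophore element distance, pharmacophore element C2: distance from averaged pharmacophore element to bound ligand; missing value means element absent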;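 for Ligand-pharmacophore element distance, pharmacophore element C3: distance from averaged pharmacophore element to bound ligand; missing value means element absent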;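 for Ligand-pharmacophore element distance, pharmacophore element C4: distance from averaged pharmacophore element to bound ligand; missing value means element absent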;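 for Ligand-pharmacophore element distance, pharmacophore element C5: distance from averaged pharmacophore element to bound ligand; missing value means element absent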
Parameters: van der Waals contact distance, MASP-2 HIS 483 atom CD2 / van der Waals contact distance, MASP-2 HIS 483 atom NE2 / van der Waals contact distance, SER 654 C to compound atom / van der Waals contact distance, SER 654 O to compound atom / van der Waals contact distance, TRP 655 C to compound atom / van der Waals contact distance, MASP-2 GLY 528 atom CA / van der Waals contact distance TRP 655 atom CZ3 / van der Waals contact distance TRP 655 atom N / van der Waals contact distance TRP 655 atom CE3 / van der Waals contact distance GLY 656 atom C / van der Waals contact distance GLY 656 atom CA / van der Waals contact distance GLY 656 atom O / van der Waals contact distance, MASP-2 TYR 607 atom CD1 / van der Waals contact distance, MASP-2 PRO 606 atom O / d(C3,CA1) / d(CA1,N1)2 / d(H4,O1) / d(H4,O2) / d(O1,O2) / d(CA1,O2) / d(CA6,O1) / d(CA6,O2) / d(CA1,C5) / d(O2,H3) / d(N2,C2) / d(CA5,N2) / d(N2,C4) / d(N2,C6) / d(N2,CA3) / d(N2,O3) / d(O4,H2): unit not given beside the values
Settings: for H-bond distance to MASP-2 ASP 627 atom OD1: ASP 627 OD1; for H-bond distance to MASP-2 GLY 656 atom N: GLY 656 N; for H-bond distance to MASP-2 SER 628 atom O: SER 628 O; for H-bond distance to MASP-2 SER 657 atom O: SER 657 O; for van der Waals contact distance, SER 654 C to compound atom: Table A2-11; for van der Waals contact distance TRP 655 atom O: MASP-2 TRP 655 O; for van der Waals contact distance SER 657 atom C: MASP-2 SER 657 C, columns c12-c13 (inferred); for Pharmacophore protein distance to MET_658 (first MET_658 column): 6th residue column; for Pharmacophore protein distance to MET_658 (second MET_658 column): 9th residue column; for H-bond distance to MASP-2 ASP 627 atom OD2: ASP 627 OD2
Summary of the method: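 Inhibitor complexes were obtained by soaking crystals of E. coli-derived human MASP-2 CCP2-SP. Synchrotron diffraction at 1.0 wavelength, molecular replacement and partial refinement gave the models; one pose per ligand was chosen for contact analysis.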

[1] = Table A5-1 pharmacophore: distance between elements, S2/S1 region
[2] = Table A5-2 pharmacophore distance, S3/S4 region
[3] = Table A7-1, between pharmacophore elements of the bound compound
[4] = Table A8-6, nearest protein atom in cell to the left

Sequence of MASP-2 CCP2-SP (O00187 445-686): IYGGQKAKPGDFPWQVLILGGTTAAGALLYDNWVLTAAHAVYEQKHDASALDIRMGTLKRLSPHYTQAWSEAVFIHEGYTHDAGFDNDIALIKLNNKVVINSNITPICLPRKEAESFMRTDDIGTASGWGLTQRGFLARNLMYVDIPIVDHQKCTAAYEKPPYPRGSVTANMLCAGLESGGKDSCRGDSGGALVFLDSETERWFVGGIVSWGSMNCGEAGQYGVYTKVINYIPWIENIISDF
Sequence of MASP-2 CCP2-SP (O00187 364-432 partner): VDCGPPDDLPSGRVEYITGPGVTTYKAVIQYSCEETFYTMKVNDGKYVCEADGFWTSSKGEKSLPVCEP

Structure (SMILES): N=C(N)c1ccc(CNC(=O)[C@@H]2CCN2C(=O)[C@H]2Cc3ccccc3CN2)cc1 [compound 1034]
- H-bond distance to MASP-2 ASP 627 atom OD1 (Table A1 (H-Bonds)): 2.9
- H-bond distance to MASP-2 GLN 665 atom OE1 (Table A1 (H-Bonds), GLN 665 OE1): 3.26
- H-bond distance to MASP-2 GLN 665 atom OE1 (second bond) (Table A1 (H-Bonds), GLN 665 OE1, second column): 2.8
- H-bond distance to MASP-2 GLY 656 atom N (Table A1 (H-Bonds)): 2.91
- H-bond distance to MASP-2 SER 628 atom O (Table A1 (H-Bonds)): 2.91
- H-bond distance to MASP-2 SER 654 atom O (Table A1 (H-Bonds), SER 654 O): 2.99
- H-bond distance to MASP-2 SER 657 atom O (Table A1 (H-Bonds)): 2.75
- van der Waals contact distance, MASP-2 PRO 606 atom CG (Table A2-4): 3.71
- van der Waals contact distance, MASP-2 amino acid atom to compound atom (Table A2-10, ARG 630 NH2, GLY 631, ASP 632, SER 633): 3.11
- van der Waals contact distance, SER 654 C to compound atom: 3.83
- van der Waals contact distance, TRP 655 CA to compound atom (Table A2-12): 3.42
- van der Waals contact distance TRP 655 atom O (Table A2-13): 3.77
- van der Waals contact distance SER 657 atom C (Table A2-14): 3.51
- Ligand-pharmacophore element distance, pharmacophore element C2 (Table A4-1): 2.4
- Ligand-pharmacophore element distance, pharmacophore element C3 (Table A4-1): 0
- Ligand-pharmacophore element distance, pharmacophore element C4 (Table A4-1): 0
- Ligand-pharmacophore element distance, pharmacophore element C5 (Table A4-1): 0
- Ligand-pharmacophore element distance, pharmacophore element C6 (Table A4-1): 0
- Ligand-pharmacophore element distance, pharmacophore element C7 (Table A4-1): 0
- Ligand-pharmacophore element distance, pharmacophore element CA1 (Table A4-1): 0.28
- Ligand-pharmacophore element distance, pharmacophore element CA2 (Table A4-1): 0
- Ligand-pharmacophore element distance, pharmacophore element CA3 (Table A4-1): 0
- Ligand-pharmacophore element distance, pharmacophore element CA4 (Table A4-1): 0
- Ligand-pharmacophore element distance, pharmacophore element CA5 (Table A4-1, element CA5): 0.98
- Ligand-pharmacophore element distance, pharmacophore element CA6 (Table A4-1): 0
- Ligand-pharmacophore element distance, pharmacophore element H1 (Table A4-2, element H1): 0
- Ligand-pharmacophore element distance, pharmacophore element H2 (Table A4-2, element H2): 0
- Ligand-pharmacophore element distance, pharmacophore element H3 (Table A4-2, element H3): 1.08
- Ligand-pharmacophore element distance, pharmacophore element H4 (Table A4-2, element H4): 3.56
- Ligand-pharmacophore element distance, pharmacophore element N1 (Table A4-2, element N1): 1.87
- Ligand-pharmacophore element distance, pharmacophore element N2 (Table A4-2, element N2): 0.86
- Ligand-pharmacophore element distance, pharmacophore element O1 (Table A4-2, element O1): 0.39
- Ligand-pharmacophore element distance, pharmacophore element O2 (Table A4-2, element O2): 0.49
- Ligand-pharmacophore element distance, pharmacophore element O3 (Table A4-2, element O3): 0
- Ligand-pharmacophore element distance, pharmacophore element O4 (Table A4-2, element O4): 0
- d(CA1,N1) [1]: 3.64
- d(CA1,O1) [1]: 4.35
- d(CA1,O2) [1]: 4.19
- d(H4,O1) [1]: 4.86
- d(H4,O2) [1]: 4.31
- d(O1,O2) [1]: 3.48
- d(CA5,N2) [2]: 3.72
- d(N2,C2) [2]: 2.26
- d(O2,H3) [2]: 2.74
- d(O2,N2) [2]: 3.03
- a(CA1, O1, O2) (Table A6-1 pharmacophore angle): 111.64
- a(O1, O2, H4) (Table A6-1 pharmacophore angle): 135.95
- A(N1, CA1, O1) a) (Table A6-1 pharmacophore angle, all compounds with protonatable center N1 except Methyl-amino-pyridine): 160.69
- a(O1, O2, H3) (Table A6-2 pharmacophore angle): 135.88
- a(O1, O2, N2) (Table A6-2 pharmacophore angle): 137.69
- a(O2, N2, C2) (Table A6-2 pharmacophore angle): 100.68
- Pharmacophore torsion angle a(H4, O1, O2, H3) [3]: 93.33
- Pharmacophore torsion angle a(H4, O1, O2, N2) [3]: 142.83
- Pharmacophore torsion angle a(N1, CA1, O2, H4) [3]: −127.27
- Pharmacophore torsion angle a(O1, H4, O2, CA1) [3]: −61.32
- Pharmacophore torsion angle a(O1, O2, N2, C2) [3]: 68.39
- Pharmacophore torsion angle a(O1, O2, N2, CA5) (Table A7-2, between pharmacophore elements of the bound compound): 137.68
- Pharmacophore protein distance to MET_658 (first MET_658 column) [4]: 2.86
- Pharmacophore protein distance to MET_658 (second MET_658 column) [4]: 3.46
- Pharmacophore protein distance to GLY_528 [4]: 3.79
- Pharmacophore protein distance to PHE_529 [4]: 3.09
- Pharmacophore protein distance to PRO_608 [4]: 2.97
- Pharmacophore protein distance to SER_611 [4]: 3.32
- Pharmacophore protein distance to TRP_655 (Table A8-6, pharmacophore elements C6, CA3, O3, H1, nearest protein atom in cell to the left): 3.27

Structure (SMILES): C[C@H](NC(=O)[C@H]1C[C@H](c2ccccc2)CN1)C(=O)NCc1ccc(C(=N)N)cc1 [compound 1036]
- H-bond distance to MASP-2 ASP 627 atom OD2 (Table A1 (H-Bonds)): 2.96
- H-bond distance to MASP-2 GLY 656 atom N (Table A1 (H-Bonds)): 3.22
- H-bond distance to MASP-2 SER 628 atom O (Table A1 (H-Bonds)): 2.9
- H-bond distance to MASP-2 SER 657 atom O (Table A1 (H-Bonds)): 2.93
- van der Waals contact distance, MASP-2 HIS 483 atom CD2 (Table A2-1): 3.81
- van der Waals contact distance, MASP-2 PHE 529 atom CE2 (Table A2-3): 3.72
- van der Waals contact distance TRP 655 atom N (Table A2-13, MASP-2 TRP 655 N): 3.58
- van der Waals contact distance GLY 656 atom O (Table A2-14, MASP-2 GLY 656 O): 3.55
- van der Waals contact distance SER 657 atom C (Table A2-14): 3.57

Structure (SMILES): C[C@H](NC(=O)[C@H]1C[C@@H](c2ccccc2)CN1)C(=O)NCc1ccc(C(=N)N)cc1 [compound 1037]
- H-bond distance to MASP-2 ASP 627 atom OD2 (Table A1 (H-Bonds)): 2.91
- H-bond distance to MASP-2 GLY 656 atom N (Table A1 (H-Bonds)): 3.35
- H-bond distance to MASP-2 SER 657 atom O (Table A1 (H-Bonds)): 2.85
- van der Waals contact distance, MASP-2 PHE 529 atom CE1 (Table A2-3): 3.27
- van der Waals contact distance, MASP-2 PHE 529 atom CE2 (Table A2-3): 3.73
- van der Waals contact distance, MASP-2 PRO 606 atom C (Table A2-4): 3.89
- van der Waals contact distance, MASP-2 PRO 606 atom O (Table A2-4): 3.73
- van der Waals contact distance GLY 656 atom C (Table A2-13, MASP-2 GLY 656 C): 3.7
- van der Waals contact distance TRP 655 atom O (Table A2-13): 3.25
- van der Waals contact distance GLY 656 atom N (Table A2-14, MASP-2 GLY 656 N): 3.86
- van der Waals contact distance SER 657 atom C (Table A2-14): 3.73
- Ligand-pharmacophore element distance, pharmacophore element C2 (Table A4-1): 0
- Ligand-pharmacophore element distance, pharmacophore element C3 (Table A4-1): 0
- Ligand-pharmacophore element distance, pharmacophore element C4 (Table A4-1): 0
- Ligand-pharmacophore element distance, pharmacophore element C5 (Table A4-1): 0
- Ligand-pharmacophore element distance, pharmacophore element C6 (Table A4-1): 0
- Ligand-pharmacophore element distance, pharmacophore element C7 (Table A4-1): 0
- Ligand-pharmacophore element distance, pharmacophore element CA1 (Table A4-1): 0.27
- Ligand-pharmacophore element distance, pharmacophore element CA2 (Table A4-1): 0
- Ligand-pharmacophore element distance, pharmacophore element CA3 (Table A4-1): 0
- Ligand-pharmacophore element distance, pharmacophore element CA4 (Table A4-1): 0
- Ligand-pharmacophore element distance, pharmacophore element CA6 (Table A4-1): 0
- d(O2,H3) [2]: 3.99
- Pharmacophore torsion angle a(H4, O1, O2, H3) [3]: 57.29
- Pharmacophore torsion angle a(N1, CA1, O2, H4) [3]: −92.49
- Pharmacophore protein distance to MET_658 (first MET_658 column) [4]: 2.38
- Pharmacophore protein distance to MET_658 (second MET_658 column) [4]: 3.03
- Pharmacophore protein distance to SER_611 [4]: 2.19

Structure (SMILES): C[C@H](NC(=O)[C@H](N)CCCc1ccccc1)C(=O)NCc1ccc(C(=N)N)cc1 [compound 1042]
- H-bond distance to MASP-2 ASP 627 atom OD1 (Table A1 (H-Bonds)): 3.32
- H-bond distance to MASP-2 GLY 656 atom O (Table A1 (H-Bonds), GLY 656 O): 2.34
- H-bond distance to MASP-2 SER 628 atom O (Table A1 (H-Bonds)): 2.74
- H-bond distance to MASP-2 SER 657 atom O (Table A1 (H-Bonds)): 2.65
- van der Waals contact distance, MASP-2 HIS 483 atom NE2 (Table A2-1): 3.56
- van der Waals contact distance, MASP-2 PHE 529 atom CZ (Table A2-3): 3.57
- van der Waals contact distance, SER 654 C to compound atom: 3.36
- van der Waals contact distance, TRP 655 C to compound atom (Table A2-12): 3.57
